# Counter-ions that a name gives are not always drawn.
# Experiment: Stability at 40° C. and 75% relative humidity (percent purity by HPLC)
# Format: physicochemical
# Details: 40° C. and 75% RH; for Percent Purity of 17-AAG T = 0 Days / Percent Purity of 17-AAG T = 21 Days: Table 8
# Description: As used herein, a “stable composition” refers a composition comprising a sulfur-containing compound and a baseline amount of the compound of formula (I) (e.g., such as percent purity as measured by HPLC) such that, after being subjected to standard stability conditions (e.g., 40° C. and 75% relative humidity) for a specified period of time (e.g., 1 day, 2 days, 3 days, 4 days, 5 days, 7 days, 14 days, 21 days, or 30 days), at least about 80% of the original amount of the compound of formula (I) remains in the composition (i.e., has not oxidized to a compound of formula (II) or degraded to other by-products). In certain embodiments, at least about 85%, at least about 90%, at least about 91%, at least about 92%, at least about 93%, at least about 94%, or at least about 95% of the original amount of the hydroquinone compound of formula (I) remains in the composition for a specified period of time (e.g., 1 day, 2 days, 3 days, 4 days, 5 days, 7 days, 14 days, 21 days, or 30 days).
# The stability data for 17-AG-HQ of Example 2 when kept at 40° C. and 75% relative humidity (RH) is depicted in FIG. 8 (see Table 2 for tabulated stability data). It was observed that 17-AG-HQ of Example 2 completely oxidizes to its quinone form in two weeks at 40° C. and […] as determined by HPLC.
# [1] = Table 14, formulations of 17-AG-HQ of Example 3
# [2] = Table 15, NaHSO3/mineral oil formulation of 17-AG-HQ of Example 3
compound,measurement,setting,value
"CO[C@H]1/C=C\C=C(/C)C(=O)Nc2cc(O)c(N)c(c2O)C[C@@H](C)C[C@H](OC)[C@H](O)[C@@H](C)/C=C(\C)[C@@H]1OC(N)=O [17-AG-HQ-HCl salt, 17-amino geldanamycin hydroquinone HCl Salt]",Percent Purity of 17-AG-HQ T = 0 Days,"Table 2, T = 0 Days",99%
same,Percent Purity of 17-AG-HQ T = 14 Days,Table 2,88%
same,Percent Purity of 17-AG-HQ T = 30 Days,Table 2,74%
"CO[C@H]1/C=C\C=C(/C)C(=O)Nc2cc(O)c(NCCF)c(c2O)C[C@@H](C)C[C@H](OC)[C@H](O)[C@@H](C)/C=C(\C)[C@@H]1OC(N)=O [17-FEAG-HQ of Example 10A, 17-(2-fluoroethylamino)-geldanamycin hydroquinone]",stability over a period of time compared to 17-FEAG-HQ of Example 10B,,greater stability
same,Percent Purity of 17-FEAG T = 0 Days,"Table 6, T = 0 Days",99%
same,Percent Purity of 17-FEAG T = 21 Days,"Table 6, T = 21 Days",96%
"CO[C@H]1/C=C\C=C(/C)C(=O)Nc2cc(O)c(N)c(c2O)C[C@@H](C)C[C@H](OC)[C@H](O)[C@@H](C)/C=C(\C)[C@@H]1OC(N)=O [17-AG-HQ of Example 3, 17-amino-geldanamycin hydroquinone]",stability over a period of time compared to 17-AG-HQ of Example 2,,greater stability
same,Percent Purity of 17-AG-HQ T = 0 Days,"Table 2, T = 0 Days",97%
same,Percent Purity of 17-AG-HQ T = 2 Days,"Table 2, T = 2 Days",93%
same,Percent Purity of 17-AG-HQ T = 5 Days,Table 2,91%
same,Percent Purity of 17-AG-HQ T = 14 Days,Table 2,87%
same,Percent Purity of 17-AG-HQ T = 21 Days,"Table 2, T = 21 Days",81%
same,Percent Purity of 17-AG-HQ T = 30 Days,Table 2,79%
same,Percent Purity of 17-AG-HQ T = 0 Days,"Table 14, formulations of 17-AG-HQ of Example 3, T = 0 Days",97%
same,Percent Purity of 17-AG-HQ T = 5 Days,[1],91%
same,Percent Purity of 17-AG-HQ T = 14 Days,[1],87%
same,Percent Purity of 17-AG-HQ T = 21 Days,"Table 14, formulations of 17-AG-HQ of Example 3, T = 21 Days",81%
same,Percent Purity of 17-AG-HQ T = 0 Days,"Table 15, NaHSO3/mineral oil formulation of 17-AG-HQ of Example 3, T = 0 Days",97%
same,Percent Purity of 17-AG-HQ T = 5 Days,[2],91%
same,Percent Purity of 17-AG-HQ T = 14 Days,[2],87%
same,Percent Purity of 17-AG-HQ T = 21 Days,"Table 15, NaHSO3/mineral oil formulation of 17-AG-HQ of Example 3, T = 21 Days",81%
"C=CCNc1c(O)cc2c(O)c1C[C@@H](C)C[C@H](OC)[C@H](O)[C@@H](C)/C=C(\C)[C@H](OC(N)=O)[C@@H](OC)/C=C\C=C(/C)C(=O)N2 [17-AAG-HQ of Example 11B, 17-allylamino-geldanamycin hydroquinone]",Percent Purity of 17-AAG T = 0 Days,T = 0 Days,97%
same,Percent Purity of 17-AAG T = 21 Days,T = 21 Days,2%
same,Percent Purity of 17-AAG-HQ T = 0 Days,"Table 19, Example 11B Formulations, T = 0 Days",97%
same,Percent Purity of 17-AAG-HQ T = 21 Days,"Table 19, Example 11B Formulations, T = 21 Days",2%
"CO[C@H]1/C=C\C=C(/C)C(=O)Nc2cc(O)c(N)c(c2O)C[C@@H](C)C[C@H](OC)[C@H](O)[C@@H](C)/C=C(\C)[C@@H]1OC(N)=O [17-AG-HQ of Example 4, 17-amino-geldanamycin hydroquinone]",stability over a period of time compared to Examples 2 and 3,,greater stability
same,Percent Purity of 17-AG-HQ T = 0 Days,"Table 2, T = 0 Days",99%
same,Percent Purity of 17-AG-HQ T = 30 Days,Table 2,97%
"CO[C@H]1/C=C\C=C(/C)C(=O)Nc2cc(O)c(N)c(c2O)C[C@@H](C)C[C@H](OC)[C@H](O)[C@@H](C)/C=C(\C)[C@@H]1OC(N)=O [17-AG-HQ of Example 6A, 17-amino-geldanamycin hydroquinone]",stability over a period of time compared to 17-AG-HQ of Example 6B,,greater stability
same,Percent Purity of 17-AG-HQ T = 0 Days,"Table 2, T = 0 Days",97%
same,Percent Purity of 17-AG-HQ T = 21 Days,"Table 2, T = 21 Days",83%
"C=CCNc1c(O)cc2c(O)c1C[C@@H](C)C[C@H](OC)[C@H](O)[C@@H](C)/C=C(\C)[C@H](OC(N)=O)[C@@H](OC)/C=C\C=C(/C)C(=O)N2 [17-AAG-HQ of Example 11A, 17-allylamino-geldanamycin hydroquinone]",stability over a period of time compared to 17-AAG-HQ of Example 11B,,greater stability
same,Percent Purity of 17-AAG T = 0 Days,T = 0 Days,99%
same,Percent Purity of 17-AAG T = 21 Days,T = 21 Days,97%
"CO[C@H]1/C=C\C=C(/C)C(=O)Nc2cc(O)c(N)c(c2O)C[C@@H](C)C[C@H](OC)[C@H](O)[C@@H](C)/C=C(\C)[C@@H]1OC(N)=O [17-AG-HQ of Example 6B, 17-amino-geldanamycin hydroquinone]",time in which the hydroquinone completely oxidizes to its quinone form,determined by HPLC,3 weeks
same,Percent Purity of 17-AG-HQ T = 0 Days,"Table 2, T = 0 Days",97%
same,Percent Purity of 17-AG-HQ T = 21 Days,"Table 2, T = 21 Days",13%
same,Percent Purity of 17-AG-HQ T = 0 Days,"Table 16, Example 6B Formulations, T = 0 Days",97%
same,Percent Purity of 17-AG-HQ T = 21 Days,"Table 16, Example 6B Formulations, T = 21 Days",13%
